Values after ≈ are worked out from the molar mass of the structure shown. Like-named read-outs stand apart in the source and are kept apart here.
Test system: Pseudomonas aeruginosa
Assay: MIC by agar dilution against 61 strains of Pseudomonas aeruginosa, secondary evaluation
Format: cell-based
Conditions: for MIC: Pseudomonas aeruginosa
Description: Minimum inhibitory concentrations (MIC) of BB-S520 were determined by serial two-fold agar dilution method using Steers' apparatus on Meuller-Hinton agar plate against 31 test organisms for the primary screening and also against 61 strains of Pseudomonas aeruginosa for the secondary evaluation. The results are shown in Table 1 and Table 2 along with those of BB-S514 and sulbenicillin.
Minimum inhibitory concentrations (MIC) of cephalosporins in the present study were determined by serial two-fold agar dilution method using Steers' apparatus on Mueller-Hinton agar plate against 31 test organisms for the primary screening and also against 61 strains of Pseudomonas aeruginosa for the secondary evaluation.

MIC (61 strains of Pseudomonas aeruginosa, Table 7, read-out: Geometric Mean of MIC): 4.3 µg/mL (≈ 8.31 µM)
MIC (BBRI Pa-No. 1, D15, Table 7, read-out: MIC): 12.5 µg/mL (≈ 24.2 µM)
MIC (BBRI Pa-No. 2, VA, Table 7, read-out: MIC): 3.1 µg/mL (≈ 5.99 µM)
MIC (BBRI Pa-No. 3, 1449VA, Table 7, read-out: MIC): 1.6 µg/mL (≈ 3.09 µM)
MIC (BBRI Pa-No. 4, H9 D113, Table 7, read-out: MIC): 3.1 µg/mL (≈ 5.99 µM)
MIC (BBRI Pa-No. 5, N4865KC, Table 7, read-out: MIC): 1.6 µg/mL (≈ 3.09 µM)
MIC (BBRI Pa-No. 6, No. 5, Table 7, read-out: MIC): 25 µg/mL (≈ 48.3 µM)
MIC (BBRI Pa-No. 7, Table 7, read-out: MIC): 3.1 µg/mL (≈ 5.99 µM)
MIC (BBRI Pa-No. 8, Table 7, read-out: MIC): 3.1 µg/mL (≈ 5.99 µM)
MIC (BBRI Pa-No. 9, Yale, Table 7, read-out: MIC): 3.1 µg/mL (≈ 5.99 µM)
MIC (BBRI Pa-No. 10, Table 7, read-out: MIC): > 100 µg/mL
MIC (BBRI Pa-No. 11, Table 7, read-out: MIC): 3.1 µg/mL (≈ 5.99 µM)
MIC (BBRI Pa-No. 12, Table 7, read-out: MIC): 6.3 µg/mL (≈ 12.2 µM)
MIC (BBRI Pa-No. 14, Table 7, read-out: MIC): 1.6 µg/mL (≈ 3.09 µM)
MIC (BBRI Pa-No. 15, Table 7, read-out: MIC): 6.3 µg/mL (≈ 12.2 µM)
MIC (BBRI Pa-No. 16, No. 130, Table 7, read-out: MIC): 0.8 µg/mL (≈ 1.55 µM)
MIC (BBRI Pa-No. 17, H6 D114, Table 7, read-out: MIC): 25 µg/mL (≈ 48.3 µM)
MIC (BBRI Pa-No. 18, H8 D121, Table 7, read-out: MIC): 50 µg/mL (≈ 96.6 µM)
MIC (BBRI Pa-No. 19, Table 7, read-out: MIC): 0.8 µg/mL (≈ 1.55 µM)
MIC (BBRI Pa-No. 20, Table 7, read-out: MIC): 6.3 µg/mL (≈ 12.2 µM)
MIC (BBRI Pa-No. 21, Table 7, read-out: MIC): 3.1 µg/mL (≈ 5.99 µM)
MIC (BBRI Pa-No. 23, Table 7, read-out: MIC): 3.1 µg/mL (≈ 5.99 µM)
MIC (BBRI Pa-No. 24, Table 7, read-out: MIC): > 100 µg/mL
MIC (BBRI Pa-No. 25, Table 7, read-out: MIC): 1.6 µg/mL (≈ 3.09 µM)
MIC (BBRI Pa-No. 26, Ps32, Table 7, read-out: MIC): 1.6 µg/mL (≈ 3.09 µM)
MIC (BBRI Pa-No. 28, CPH1C527/72, Table 7, read-out: MIC): 6.3 µg/mL (≈ 12.2 µM)
MIC (BBRI Pa-No. 29, D122, Table 7, read-out: MIC): 3.1 µg/mL (≈ 5.99 µM)
MIC (BBRI Pa-No. 30, Table 7, read-out: MIC): 6.3 µg/mL (≈ 12.2 µM)
MIC (BBRI Pa-No. 31, Table 7, read-out: MIC): 1.6 µg/mL (≈ 3.09 µM)
MIC (BBRI Pa-No. 32, Table 7, read-out: MIC): 3.1 µg/mL (≈ 5.99 µM)
MIC (BBRI Pa-No. 33, Table 7, read-out: MIC): 6.3 µg/mL (≈ 12.2 µM)
MIC (BBRI Pa-No. 34, Table 7, read-out: MIC): 3.1 µg/mL (≈ 5.99 µM)
MIC (BBRI Pa-No. 35, Table 7, read-out: MIC): 6.3 µg/mL (≈ 12.2 µM)
MIC (BBRI Pa-No. 36, Table 7, read-out: MIC): 0.4 µg/mL (≈ 0.773 µM)
MIC (BBRI Pa-No. 37, Table 7, read-out: MIC): 3.1 µg/mL (≈ 5.99 µM)
MIC (BBRI Pa-No. 38, Table 7, read-out: MIC): 6.3 µg/mL (≈ 12.2 µM)
MIC (BBRI Pa-No. 39, Table 7, read-out: MIC): 1.6 µg/mL (≈ 3.09 µM)
MIC (BBRI Pa-No. 41, Table 7, read-out: MIC): 3.1 µg/mL (≈ 5.99 µM)
MIC (BBRI Pa-No. 42, Table 7, read-out: MIC): 25 µg/mL (≈ 48.3 µM)
MIC (BBRI Pa-No. 43, Table 7, read-out: MIC): 6.3 µg/mL (≈ 12.2 µM)
MIC (BBRI Pa-No. 44 (unnamed strain), Table 7, read-out: MIC): 3.1 µg/mL (≈ 5.99 µM)
MIC (BBRI Pa-No. 51, Table 7, read-out: MIC): 3.1 µg/mL (≈ 5.99 µM)
MIC (BBRI Pa-No. 52, Table 7, read-out: MIC): 3.1 µg/mL (≈ 5.99 µM)
MIC (BBRI Pa-No. 53, Table 7, read-out: MIC): 3.1 µg/mL (≈ 5.99 µM)
MIC (BBRI Pa-No. 54, Table 7, read-out: MIC): 3.1 µg/mL (≈ 5.99 µM)
MIC (BBRI Pa-No. 55, Table 7, read-out: MIC): 3.1 µg/mL (≈ 5.99 µM)
MIC (BBRI Pa-No. 56, Table 7, read-out: MIC): 3.1 µg/mL (≈ 5.99 µM)
MIC (BBRI Pa-No. 57, Table 7, read-out: MIC): 6.3 µg/mL (≈ 12.2 µM)
MIC (BBRI Pa-No. 58, Table 7, read-out: MIC): 6.3 µg/mL (≈ 12.2 µM)
MIC (BBRI Pa-No. 59, Table 7, read-out: MIC): 1.6 µg/mL (≈ 3.09 µM)
MIC (BBRI Pa-No. 60, Table 7, read-out: MIC): 3.1 µg/mL (≈ 5.99 µM)
MIC (BBRI Pa-No. 61, Table 7, read-out: MIC): 3.1 µg/mL (≈ 5.99 µM)
MIC (BBRI Pa-No. 62, Table 7, read-out: MIC): 12.5 µg/mL (≈ 24.2 µM)
MIC (BBRI Pa-No. 64, Table 7, read-out: MIC): 3.1 µg/mL (≈ 5.99 µM)
MIC (BBRI Pa-No. 65, Table 7, read-out: MIC): 1.6 µg/mL (≈ 3.09 µM)
MIC (BBRI Pa-No. 66, Table 7, read-out: MIC): 3.1 µg/mL (≈ 5.99 µM)
MIC (BBRI Pa-No. 67, Table 7, read-out: MIC): 6.3 µg/mL (≈ 12.2 µM)
MIC (BBRI Pa-No. 68, Table 7, read-out: MIC): 6.3 µg/mL (≈ 12.2 µM)
MIC (BBRI Pa-No. 69, Table 7, read-out: MIC): 6.3 µg/mL (≈ 12.2 µM)
MIC (BBRI Pa-No. 70, K-Ps102(CR-102), Table 7, read-out: MIC): 3.1 µg/mL (≈ 5.99 µM)
MIC (GN315, BBRI Pa-No. 27, GN315, Table 7, read-out: MIC): 3.1 µg/mL (≈ 5.99 µM)
MIC (GN4925, BBRI Pa-No. 44, GN4925, Table 7, read-out: MIC): 6.3 µg/mL (≈ 12.2 µM)
Compound: CCN1CCN(C(=O)NC(C(=O)N[C@@H]2C(=O)N3[C@@H]2SC(C)(C)[C@@H]3C(=O)O)c2ccccc2)C(=O)C1=O (stereo partly drawn) [T-1220]
Rel. Act. (SBPC=100%) (61 strains of Pseudomonas aeruginosa, Table 7): 544%

Reference: patent publication US4138554A, “7-[D-α-(4-Hydroxy-1,5-naphthyridine-3-carboxamido)-α-phenyl (and p-hydroxyphenyl)acetamido]-3-carbamoyloxymethyl-3-cephem-4-carboxylic acids” (priority 1977, dated 1979)
